Read-outs that look alike come from different tables or passages of the source.
Key:
[1] = test system: T. b. brucei; assay: In vitro antitrypanosomal activity against T. brucei (growth inhibition); type: cell-based, Trypanosoma brucei; conditions: Trypanosoma brucei
Protocol: Primary hits from the screen were further characterized using a dose-response assay format to determine the EC50. In parallel, the cytotoxicities of these compounds were determined against a proliferating human hepatoma cell line (Huh7). […] SI—CC50/EC50). The final set of confirmed T. brucei hits consisted of 1035 inhibitors. […] In vitro antitrypanosomal activities against T. b. rhodesiense (STIB9000) and cytotoxicities against L6 rat myoblast cells were measured following established protocols (Orhan et al., Mar. Drugs 8:47 (2010). […] All wells including negative controls contained a final of 0.4% DMSO. After incubation of the plates at 37° C. for 48 h, the parasite density was determined using the CellTiter-Glo reagent (Promega), a firefly luciferase assay system that measures the amount of cellular ATP present in plate wells.

[2] = test system: Trypanosoma cruzi; assay: Efficacy against T. cruzi in vitro; type: cell-based; conditions: Trypanosoma cruzi
[3] = Distribution between mouse plasma and brain (brain penetration, ip); type: in vivo; conditions: for Brain/plasma ratio / [compound]Brain / [compound]Plasma: Table 14, mice, single ip dose 5 mg/kg, one hour post-dose; for [compound]Brain / [compound]Plasma: ± SEM of 3 mice (compound 3: 6 mice); for Kp at 1 h / concentration at 1 h: mouse, 5 mg/kg; for Kp at 1 h: read-out: Average brain/plasma ratio
Protocol: For distribution of compounds between mouse plasma and brain, mice (in groups of 3) were injected with test compounds (5 mg/kg ip) and sacrificed at the indicated times for collection of plasma and brain. Compound was dissolved in 0.4 mL of dosing solution (7% Tween 80, 3% ethanol, 5% DMSO, 0.9% saline) for ip injections. The brains were weighed and immediately frozen, then later homogenized in acetonitrile using a Dounce homogenizer. Prior to animal studies, recovery of test compound was carried out by adding a known amount to a mouse brain in the test extraction solvent and performing the homogenization. Compound recovery was determined by liquid chromatography/tandem mass spectrometry analysis relative to a standard compound amount. Blood was taken from the same mice in heparinized capillary tubes (Fisherbrand) for determination of compound concentration in plasma. The concentration of compound in the brain was obtained by dividing the moles of compound in the brain by the brain volume (obtained from the brain weight assuming 1 g is 1 mL) and correcting for the brain vasculature volume of 2.5% by weight.
Brain penetration studies (Table 14) were initially performed upon compounds 1, 2, and 3, but were expanded to include other compounds in order to explore the SAR of brain penetration. Groups of three mice were given single 5 mg/kg ip doses of the test compounds and were sacrificed 1 h post-dose.

[4] = test system: human hepatocytes HepG2; assay: Cytotoxicity against HepG2 cells; conditions: for EC50: Homo sapiens, HepG2, read-out: HepG2 EC50; for EC90: read-out: HepG2 EC90, concentration required to inhibit growth by 90%, human hepatocytes
[5] = test system: human lymphocytes CRL-8155; assay: Cytotoxicity against CRL-8155 cells; conditions: human lymphoblasts; for EC50: read-out: CRL-8155 EC50, concentration required to inhibit growth by 50%; for EC90: read-out: CRL-8155 EC90, concentration required to inhibit growth by 90%
Protocol: The selectivity of each compound for the parasite over each of the two cell lines was calculated.

[6] = Table 9, read-out: T. brucei EC50
[7] = Table 9, read-out: T. brucei EC90
[8] = Table 16, read-out: T. b. brucei EC50
[9] = Table 16, read-out: T. Cruzi EC50
[10] = Table 11, read-out: T. b. brucei EC50

SMILES | melting point [°C] | EC50 [2, 9] [nM] | EC50 [1, 6] [nM] | EC90 [1, 7] [nM] | EC50 [1, 8] [nM] | other results
O=C(Nc1ccc2sc(-c3ccccc3)nc2c1)N1CC=CCC1 [Compound 24, N-(2-Phenylbenzo[d]thiazol-5-yl)-3,6-dihydropyridine-1(2H)-carboxamide] | 199 to 200 | – | 1120 | 1350 | – | –
O=C(Nc1ccc2oc(-c3ccccc3)nc2c1)N1CCCC1 [Compound 8, 2-Phenyl-5-N-pyrrolidylamidobenzoxazole] | – | – | 5250 | > 10000 | – | EC50 ([1]; Table 7, read-out: T. brucei EC50): 5250 nM; Brain/plasma ratio [3]: 1.58 ± 0.484; [compound]Brain [3]: 0.397 ± 0.077 µM; [compound]Plasma [3]: 0.270 ± 0.036 µM; Kp at 1 h ([3]; brain and plasma, intraperitoneal, Table 7, groups of 3 mice): 1.58 ± 0.839; concentration at 1 h ([3]; brain, intraperitoneal, Table 7, groups of 3 mice, read-out: Average [compound] brain): 397 ± 130 nM; concentration at 1 h ([3]; plasma, intraperitoneal, Table 7, groups of 3 mice, read-out: Average [compound] plasma): 270 ± 62 nM
N#CC1CCN(C(=O)Nc2ccc3sc(-c4ccc(F)c(F)c4)nc3c2)C1 (stereo not drawn) [Compound 36, 2-(3,4-Difluorophenyl)-5-(3-cyano-N-pyrrolidylamido)benzothiazole] | 222 to 224 | – | 2850 | 4670 | – | –
O=C(Nc1ccn2cc(-c3ccccc3)nc2c1)N1CCCCC1 [Compound 52, N-{2-phenylimidazo[1,2-a]pyridin-7-yl}piperidine-1-carboxamide] | – | 2750 | – | – | 2510 | –
O=C(Nc1ccc2sc(-c3ccc(F)c(F)c3)nc2c1)N1CCC(F)(F)CC1 [Compound 40, 2-(3,4-Difluorophenyl)-5-(4,4-difluoro-N-piperidylamido)benzothiazole] | 222 to 225 | – | 2980 | 4170 | – | –
O=C(Nc1ccc2sc(-c3ccc(F)c(F)c3)nc2c1)N1CC[C@@H](F)C1 [Compound 4, (R)-2-(3,4-Difluorophenyl)-5-(3-fluoro-N-pyrrolidylamido)benzothiazole] | – | – | 326 | 491 | – | EC50 ([1]; Table 6, read-out: T. brucei EC50): 326 nM; EC50 ([1]; Table 8, read-out: T. brucei EC50): 326 nM; EC50 [1, 10]: 326 nM; EC50 ([2]; Table 6, read-out: T. cruzi EC50): 491 nM; EC50 ([2]; Table 10, read-out: T.cruzi EC50): 968 nM; EC90 ([2]; Table 10, read-out: T.cruzi EC90): 1540 nM; Brain/plasma ratio [3]: 4.86 ± 1.055; [compound]Brain [3]: 6.35 ± 2.257 µM; [compound]Plasma [3]: 1.20 ± 0.270 µM; concentration at 1 h ([3]; in vivo, Table 8, groups of 3 mice (compound 3: ± SEM of 6 mice), read-out: Average [compound] brain): 6350 ± 3910 nM; concentration at 1 h ([3]; in vivo, Table 8, groups of 3 mice (compound 3: ± SEM of 6 mice), read-out: Average [compound] plasma): 1200 ± 467 nM; Kp at 1 h ([3]; in vivo, Table 8, groups of 3 mice): 4.86 ± 1.83; EC50 [4]: > 50000 nM; EC90 [4]: > 50000 nM; EC50 [5]: > 50000 nM; EC90 [5]: > 50000 nM
O=C(Nc1ccc2sc(-c3ccc(F)c(F)c3)nc2c1)N1C[C@@H](F)[C@@H](F)C1 [Compound 59, cis-2-(3,4-Difluorophenyl)-5-(3,4-difluoro-N-pyrrolidylamido)benzothiazole] | 241 to 243 | – | – | – | – | EC50 ([1]; Table 17, read-out: T. b. brucei EC50): 340 nM; EC90 ([1]; Table 17, read-out: T. b. brucei EC90): 517 nM
CN1CCN(C(=O)Nc2ccc3sc(-c4cccc(F)c4)nc3c2)CC1 [Compound 30, N-(2-(3-Fluorophenyl)benzothiazol-5-yl)-4-methylpiperazine-1-carboxamide] | 224 to 226 | – | 3150 | 7550 | – | –
O=C(Nc1ccc2sc(-c3ccc(F)cc3)nc2c1)c1ccccc1 [Compound 25, 5-Benzamido-2-(4-fluorophenyl)benzothiazole] | 232.5 to 233.5 | – | 1920 | 3000 | – | –
N=C(N)c1ccc(OCCCCCOc2ccc(C(=N)N)cc2)cc1 [penth, Pentamidine, reference compound] | – | – | – | – | – | EC50 [1, 10]: 1.05 nM; EC50 [4]: > 100000 nM; EC90 [4]: > 100000 nM; EC50 [5]: 45400 nM; EC90 [5]: > 100000 nM
O=C(Nc1ccc2sc(-c3ccc(F)c(F)c3)nc2c1)N1CCC(O)C1 (stereo not drawn) [Compound 38, 2-(3,4-Difluorophenyl)-5-(3-hydroxy-N-pyrrolidylamido)benzothiazole] | 211 to 213 | – | 7680 | 13600 | – | –
O=C(Nc1ccn2cc(-c3ccccc3)nc2c1)N1CCCC1 [Compound 51, N-{2-phenylimidazo[1,2-a]pyridin-7-yl}pyrrolidine-1-carboxamide] | – | 4460 | – | – | 2230 | –
O=C(Nc1ccc2sc(-c3ccccc3)nc2c1)N1CCSC1 [Compound 22] | 177 to 179 | – | 1240 | 2380 | – | –

Further lines, with some results ahead:

melting point [°C] | EC50 [2, 9] [nM] | SMILES | EC50 [1, 6] [nM] | EC90 [1, 7] [nM] | EC50 [1, 8] [nM] | other results
– | 710 | O=C(Nc1ccn2cc(-c3cccc(F)c3)nc2c1)N1CC[C@H](F)C1 [Compound 47, (3S)-3-fluoro-N-[2-(3-fluorophenyl)imidazo[1,2-a]pyridin-7-yl]pyrrolidine-1-carboxamide] | – | – | 160 | –
– | 2840 | O=C(Nc1ccn2cc(-c3ccc(F)c(F)c3)nc2c1)N1CCCCC1 [Compound 43, N-[2-(3,4-difluorophenyl)imidazo[1,2-a]pyridin-7-yl]piperidine-1-carboxamide] | – | – | 1200 | –
– | 940 | O=C(Nc1ccn2cc(-c3cccc(F)c3F)nc2c1)N1CC[C@H](F)C1 [Compound 44, (3S)-N-[2-(2,3-difluorophenyl)imidazo[1,2-a]pyridin-7-yl]-3-fluoropyrrolidine-1-carboxamide] | – | – | 180 | –
– | 3100 | O=C(Nc1ccn2cc(-c3cccc(F)c3)nc2c1)N1CCCCC1 [Compound 49, N-[2-(3-fluorophenyl)imidazo[1,2-a]pyridin-7-yl]piperidine-1-carboxamide] | – | – | 970 | –
– | 2240 | O=C(Nc1ccn2cc(-c3ccc(F)c(F)c3)nc2c1)N1CCCC1 [Compound 42, N-[2-(3,4-difluorophenyl)imidazo[1,2-a]pyridin-7-yl]pyrrolidine-1-carboxamide] | – | – | 320 | –
– | 2530 | O=C(Nc1ccn2cc(-c3ccc(F)c(F)c3)nc2n1)N1CC[C@H](F)C1 [Compound 54, (3S)-N-[2-(3,4-difluorophenyl)imidazo[1,2-a]pyrimidin-7-yl]-3-fluoropyrrolidine-1-carboxamide] | – | – | > 20000 | –
– | 1080 | O=C(Nc1ccn2cc(-c3ccccc3)nc2c1)N1CC[C@H](F)C1 [Compound 50, (3S)-3-fluoro-N-{2-phenylimidazo[1,2-a]pyridin-7-yl}pyrrolidine-1-carboxamide] | – | – | 620 | –
– | 1020 | O=C(Nc1ccn2cc(-c3cccc(F)c3F)nc2c1)N1CCCC1 [Compound 45, N-[2-(2,3-difluorophenyl)imidazo[1,2-a]pyridin-7-yl]pyrrolidine-1-carboxamide] | – | – | 580 | –
– | 1000 | O=C(Nc1ccn2cc(-c3cccc(F)c3F)nc2c1)N1CCCCC1 [Compound 46, N-[2-(2,3-difluorophenyl)imidazo[1,2-a]pyridin-7-yl]piperidine-1-carboxamide] | – | – | 720 | –
– | 90 | O=C(Nc1cc2nc(-c3ccc(F)c(F)c3)cn2cn1)N1CC[C@H](F)C1 [Compound 53, (3S)-N-[2-(3,4-difluorophenyl)imidazo[1,2-c]pyrimidin-7-yl]-3-fluoropyrrolidine-1-carboxamide] | – | – | 20 | –
– | 390 | O=C(Nc1ccn2cc(-c3ccc(F)c(F)c3)nc2c1)N1CC[C@H](F)C1 [Compound 41, (3S)-N-[2-(3,4-difluorophenyl)imidazo[1,2-a]pyridin-7-yl]-3-fluoropyrrolidine-1-carboxamide] | – | – | 160 | –
– | 2950 | O=C(Nc1ccn2cc(-c3cccc(F)c3)nc2c1)N1CCCC1 [Compound 48, N-[2-(3-fluorophenyl)imidazo[1,2-a]pyridin-7-yl]pyrrolidine-1-carboxamide] | – | – | 730 | –

— US10399966B2, “Compounds for treatment of trypanosomes and neurological pathogens and uses thereof” (The University of North Carolina at Chapel Hill, priority 2016, dated 2019)
